Experimental data published in patent publication US20230065740A1, “CYCLIN-DEPENDENT KINASE INHIBITORS” (SPV THERAPEUTICS INC., priority 2018, published 2023).

Experiments:
CDK4-CYCLIND1 = CDK4-CYCLIND1 (Homo sapiens, UniProt P11802); assay: Microfluidic LabChip kinase inhibition assay, CDK4-CyclinD1; settings: CDK4 IC50 (μM), Table 2; 200 μM ATP, 1 nM enzyme
CDK6-CYCLIND3 = biological target: T1, CDK6-CYCLIND3 (Homo sapiens, UniProt Q00534); assay: Microfluidic LabChip kinase inhibition assay, CDK6-CyclinD3; assay type: biochemical; settings: Table 2; 300 μM ATP, 2 nM enzyme; read-out: CDK6 IC50
T1 construct: purchased Carna
T1 sequence (Q00534 whole entry): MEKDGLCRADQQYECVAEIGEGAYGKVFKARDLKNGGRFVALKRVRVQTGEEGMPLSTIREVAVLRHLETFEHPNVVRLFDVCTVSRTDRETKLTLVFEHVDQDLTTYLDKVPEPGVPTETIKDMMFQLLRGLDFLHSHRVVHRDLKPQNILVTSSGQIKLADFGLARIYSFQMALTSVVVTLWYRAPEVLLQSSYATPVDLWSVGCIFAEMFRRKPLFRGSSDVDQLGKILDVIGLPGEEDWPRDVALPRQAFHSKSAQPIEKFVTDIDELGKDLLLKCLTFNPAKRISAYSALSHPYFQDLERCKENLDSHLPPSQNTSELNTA
T1 sequence (P30281 whole entry partner): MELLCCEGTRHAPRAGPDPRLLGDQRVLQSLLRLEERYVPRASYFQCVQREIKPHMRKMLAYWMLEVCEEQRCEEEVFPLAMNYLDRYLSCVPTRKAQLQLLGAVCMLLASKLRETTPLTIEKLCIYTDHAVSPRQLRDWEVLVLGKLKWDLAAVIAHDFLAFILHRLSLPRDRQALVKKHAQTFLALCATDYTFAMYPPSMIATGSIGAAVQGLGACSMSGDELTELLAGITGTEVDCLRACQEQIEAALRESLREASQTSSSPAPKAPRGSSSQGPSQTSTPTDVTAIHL

Sequence of CDK4-CYCLIND1 (P11802 whole entry): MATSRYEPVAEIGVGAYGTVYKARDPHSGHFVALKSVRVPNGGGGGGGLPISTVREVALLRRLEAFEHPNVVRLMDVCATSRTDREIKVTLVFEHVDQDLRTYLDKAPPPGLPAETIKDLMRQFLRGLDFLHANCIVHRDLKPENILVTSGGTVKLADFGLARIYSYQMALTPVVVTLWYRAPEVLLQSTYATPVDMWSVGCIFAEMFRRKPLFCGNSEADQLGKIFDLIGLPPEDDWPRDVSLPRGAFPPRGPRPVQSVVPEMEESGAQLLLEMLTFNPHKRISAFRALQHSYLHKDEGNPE
Sequence of CDK4-CYCLIND1 (P24385 whole entry partner): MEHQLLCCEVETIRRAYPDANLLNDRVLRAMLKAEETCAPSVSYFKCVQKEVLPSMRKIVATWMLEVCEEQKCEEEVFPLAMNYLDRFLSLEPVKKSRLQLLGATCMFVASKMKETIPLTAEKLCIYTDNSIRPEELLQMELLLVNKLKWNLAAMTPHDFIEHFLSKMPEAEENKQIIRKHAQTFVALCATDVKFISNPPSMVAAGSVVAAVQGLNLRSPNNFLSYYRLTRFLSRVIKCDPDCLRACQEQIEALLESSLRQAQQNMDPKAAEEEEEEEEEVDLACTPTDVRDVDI

| IC50 (CDK4-CYCLIND1) [µM] | IC50 (CDK6-CYCLIND3) [µM] | SMILES |
| --- | --- | --- |
| > 30 | > 30 | CN1CCC2(Cc3cnc(Nc4ccc(N5CCNCC5)cn4)nc3N2C2CCCC2)C1=O (stereo not drawn) [Compound C19, 7′-cyclopentyl-1-methyl-2′-((5-(piperazin-1-yl)pyridin-2-yl)amino)-5′,7′-dihydrospiro[pyrrolidine-3,6′-pyrrolo[2,3-d]pyrimidin]-2-one] |
| > 30 | > 30 | CN1CCN(c2ccc(Nc3ncc4c(n3)N(C3CCCC3)C3(CCN(C)C3=O)C4)nc2)CC1 (stereo not drawn) [Compound C20, 7′-cyclopentyl-1-methyl-2′-((5-(4-methylpiperazin-1-yl)pyridin-2-yl)amino)-5′,7′-dihydrospiro[pyrrolidine-3,6′-pyrrolo[2,3-d]pyrimidin]-2-one] |
| > 30 | > 30 | O=C1N(Cc2ccccc2)CCC12Cc1cnc(Nc3ccc(N4CCNCC4)cn3)nc1N2C1CCCC1 (stereo not drawn) [Compound C21] |
| 16.5 | > 30 | CN1CCN(c2ccc(Nc3ncc4c(n3)N(C3CCCC3)C3(CCN(Cc5ccccc5)C3=O)C4)nc2)CC1 (stereo not drawn) [Compound C22, 1-benzyl-7′-cyclopentyl-2′-((5-(4-methylpiperazin-1-yl)pyridin-2-yl)amino)-5′,7′-dihydrospiro[pyrrolidine-3,6′-pyrrolo[2,3-d]pyrimidin]-2-one] |
| 17.7 | > 30 | CC(C)N1CCN(c2ccc(Nc3ncc4c(n3)N(C3CCCC3)C3(CCN(Cc5ccccc5)C3=O)C4)nc2)CC1 (stereo not drawn) [Compound C23, 1-benzyl-7′-cyclopentyl-2′-((5-(4-isopropylpiperazin-1-yl)pyridin-2-yl)amino)-5′,7′-dihydrospiro[pyrrolidine-3,6′-pyrrolo[2,3-d]pyrimidin]-2-one] |
| 12.3 | > 30 | CN1CCN(c2ccc(Nc3ncc4c(n3)N(C3CCCC3)C3(CCN(Cc5ccccc5)C3=O)C4)cc2)CC1 (stereo not drawn) [Compound C24, 1-benzyl-7′-cyclopentyl-2′-((4-(4-methylpiperazin-1-yl)phenyl)amino)-5′,7′-dihydrospiro[pyrrolidine-3,6′-pyrrolo[2,3-d]pyrimidin]-2-one] |
| > 30 | > 30 | CN1CCCC2(Cc3cnc(Nc4ccc(N5CCNCC5)cn4)nc3N2C2CCCC2)C1=O (stereo not drawn) [Compound C25, 7′-cyclopentyl-1-methyl-2′-((5-(piperazin-1-yl)pyridin-2-yl)amino)-5′,7′-dihydrospiro[piperidine-3,6′-pyrrolo[2,3-d]pyrimidin]-2-one] |
| > 30 | > 30 | CN1CCN(c2ccc(Nc3ncc4c(n3)N(C3CCCC3)C3(CCCN(C)C3=O)C4)nc2)CC1 (stereo not drawn) [Compound C26, 7′-cyclopentyl-1-methyl-2′-((5-(4-methylpiperazin-1-yl)pyridin-2-yl)amino)-5′,7′-dihydrospiro[piperidine-3,6′-pyrrolo[2,3-d]pyrimidin]-2-one] |
| > 30 | > 30 | O=C1N(Cc2ccccc2)CCCC12Cc1cnc(Nc3ccc(N4CCNCC4)cn3)nc1N2C1CCCC1 (stereo not drawn) [Compound C27, 1-benzyl-7′-cyclopentyl-2′-((5-(piperazin-1-yl)pyridin-2-yl)amino)-5′,7′-dihydrospiro[piperidine-3,6′-pyrrolo[2,3-d]pyrimidin]-2-one] |
| > 30 | > 30 | CN1CCN(c2ccc(Nc3ncc4c(n3)N(C3CCCC3)C3(CCCN(Cc5ccccc5)C3=O)C4)nc2)CC1 (stereo not drawn) [Compound C28, 1-benzyl-7′-cyclopentyl-2′-((5-(4-methylpiperazin-1-yl)pyridin-2-yl)amino)-5′,7′-dihydrospiro[piperidine-3,6′-pyrrolo[2,3-d]pyrimidin]-2-one] |
| 7.78 | > 30 | COc1ccc(CN2CCC3(Cc4cnc(Nc5ccc(N6CCNCC6)cn5)nc4N3C3CCCC3)C2=O)cc1 (stereo not drawn) [Compound C29, 7′-cyclopentyl-1-(4-methoxybenzyl)-2′-((5-(piperazin-1-yl)pyridin-2-yl)amino)-5′,7′-dihydrospiro[pyrrolidine-3,6′-pyrrolo[2,3-d]pyrimidin]-2-one] |
| 8.21 | > 30 | COc1ccc(CN2CCC3(Cc4cnc(Nc5ccc(N6CCN(C)CC6)cn5)nc4N3C3CCCC3)C2=O)cc1 (stereo not drawn) [Compound C30, 7′-cyclopentyl-1-(4-methoxybenzyl)-2′-((5-(4-methylpiperazin-1-yl)pyridin-2-yl)amino)-5′,7′-dihydrospiro[pyrrolidine-3,6′-pyrrolo[2,3-d]pyrimidin]-2-one] |
| 7.28 | > 30 | COc1ccc(CN2CCC3(Cc4cnc(Nc5ccc(N6CCN(C(C)C)CC6)cn5)nc4N3C3CCCC3)C2=O)cc1 (stereo not drawn) [Compound C31, 7′-cyclopentyl-2′-((5-(4-isopropylpiperazin-1-yl)pyridin-2-yl)amino)-1-(4-methoxybenzyl)-5′,7′-dihydrospiro[pyrrolidine-3,6′-pyrrolo[2,3-d]pyrimidin]-2-one] |
| 10.5 | > 30 | COc1ccc(CN2CCC3(Cc4cnc(Nc5ccc(OCCN(C)C)cn5)nc4N3C3CCCC3)C2=O)cc1 (stereo not drawn) [Compound C32, 7′-cyclopentyl-2′-((5-(2-(dimethylamino)ethoxy)pyridin-2-yl)amino)-1-(4-methoxybenzyl)-5′,7′-dihydrospiro[pyrrolidine-3,6′-pyrrolo[2,3-d]pyrimidin]-2-one] |
| 0.694 | 2.08 | O=C1NCCC12Cc1cnc(Nc3ccc(N4CCNCC4)cn3)nc1N2C1CCCC1 (stereo not drawn) [Compound C33, 7′-cyclopentyl-2′-((5-(piperazin-1-yl)pyridin-2-yl)amino)-5′,7′-dihydrospiro[pyrrolidine-3,6′-pyrrolo[2,3-d]pyrimidin]-2-one] |
| 1.16 | 3.7 | CN1CCN(c2ccc(Nc3ncc4c(n3)N(C3CCCC3)C3(CCNC3=O)C4)nc2)CC1 (stereo not drawn) [Compound C34, 7′-cyclopentyl-2′-((5-(4-methylpiperazin-1-yl)pyridin-2-yl)amino)-5′,7′-dihydrospiro[pyrrolidine-3,6′-pyrrolo[2,3-d]pyrimidin]-2-one] |
| 19.6 | > 30 | O=C1NCCCC12Cc1cnc(Nc3ccc(N4CCNCC4)cn3)nc1N2C1CCCC1 (stereo not drawn) [Compound C35, 7′-cyclopentyl-2′-((5-(piperazin-1-yl)pyridin-2-yl)amino)-5′,7′-dihydrospiro[piperidine-3,6′-pyrrolo[2,3-d]pyrimidin]-2-one] |
| 29.3 | > 30 | CN1CCN(c2ccc(Nc3ncc4c(n3)N(C3CCCC3)C3(CCCNC3=O)C4)nc2)CC1 (stereo not drawn) [Compound C36, 7′-cyclopentyl-2′-((5-(4-methylpiperazin-1-yl)pyridin-2-yl)amino)-5′,7′-dihydrospiro[piperidine-3,6′-pyrrolo[2,3-d]pyrimidin]-2-one] |
| > 30 | > 30 | CC(C)N1CCN(c2ccc(Nc3ncc4c(n3)N(C3CCCC3)C3(CCCNC3=O)C4)nc2)CC1 (stereo not drawn) [Compound C37, 7′-cyclopentyl-2′-((5-(4-isopropylpiperazin-1-yl)pyridin-2-yl)amino)-5′,7′-dihydrospiro[piperidine-3,6′-pyrrolo[2,3-d]pyrimidin]-2-one] |
| 0.631 | 2.99 | CC(C)N1CCN(c2ccc(Nc3ncc4c(n3)N(C3CCCC3)C3(CCNC3=O)C4)nc2)CC1 (stereo not drawn) [Compound C38, 7′-cyclopentyl-2′-((5-(4-isopropylpiperazin-1-yl)pyridin-2-yl)amino)-5′,7′-dihydrospiro[pyrrolidine-3,6′-pyrrolo[2,3-d]pyrimidin]-2-one] |
| 0.53 | 2.55 | CN1CCN(c2ccc(Nc3ncc4c(n3)N(C3CCCC3)C3(CCN(Cc5ccccc5)C3=O)C4)cc2F)CC1 (stereo not drawn) [Compound C39, 1-benzyl-7′-cyclopentyl-2′-((3-fluoro-4-(4-methylpiperazin-1-yl)phenyl)amino)-5′,7′-dihydrospiro[pyrrolidine-3,6′-pyrrolo[2,3-d]pyrimidin]-2-one] |
| 2.96 | 10.7 | CN1CCN(c2ccc(Nc3ncc4c(n3)N(C3CCCC3)C3(CCCN(Cc5ccccc5)C3=O)C4)cc2F)CC1 (stereo not drawn) [Compound C40, 1-benzyl-7′-cyclopentyl-2′-((3-fluoro-4-(4-methylpiperazin-1-yl)phenyl)amino)-5′,7′-dihydrospiro[piperidine-3,6′-pyrrolo[2,3-d]pyrimidin]-2-one] |
| 5.98 | 12.8 | CN1CCN(c2ccc(Nc3ncc4c(n3)N(C3CCCC3)C3(CCN(Cc5ccccc5)C3=O)C4)c(F)c2)CC1 (stereo not drawn) [Compound C41, 1-benzyl-7′-cyclopentyl-2′-((2-fluoro-4-(4-methylpiperazin-1-yl)phenyl)amino)-5′,7′-dihydrospiro[pyrrolidine-3,6′-pyrrolo[2,3-d]pyrimidin]-2-one] |
| 4.46 | 12.1 | CN1CCN(c2ccc(Nc3ncc4c(n3)N(C3CCCC3)C3(CCCN(Cc5ccccc5)C3=O)C4)c(F)c2)CC1 (stereo not drawn) [Compound C42, 1-benzyl-7′-cyclopentyl-2′-((2-fluoro-4-(4-methylpiperazin-1-yl)phenyl)amino)-5′,7′-dihydrospiro[piperidine-3,6′-pyrrolo[2,3-d]pyrimidin]-2-one] |
| 0.0633 | 0.423 | O=C1NCCC12Cc1cnc(Nc3ccc(N4CCNCC4)cc3)nc1N2C1CCCC1 (stereo not drawn) [Compound C43, 7′-cyclopentyl-2′-((4-(piperazin-1-yl)phenyl)amino)-5′,7′-dihydrospiro[pyrrolidine-3,6′-pyrrolo[2,3-d]pyrimidin]-2-one] |
| > 30 | > 30 | O=C1NCCCC12Cc1cnc(Nc3cc(C(F)(F)F)c(N4CCNCC4)cn3)nc1N2C1CCCC1 (stereo not drawn) [Compound C44, 7′-cyclopentyl-2′-((5-(piperazin-1-yl)-4-(trifluoromethyl)pyridin-2-yl)amino)-5′,7′-dihydrospiro[piperidine-3,6′-pyrrolo[2,3-d]pyrimidin]-2-one] |
| 0.105 | 0.574 | CN1CCN(c2ccc(Nc3ncc4c(n3)N(C3CCCC3)C3(CCNC3=O)C4)cc2)CC1 (stereo not drawn) [Compound C45, 7′-cyclopentyl-2′-((4-(4-methylpiperazin-1-yl)phenyl)amino)-5′,7′-dihydrospiro[pyrrolidine-3,6′-pyrrolo[2,3-d]pyrimidin]-2-one] |
